biological target: T1, hNLRP3 (Homo sapiens, UniProt Q96P20); assay: Measurement of IL-1β production in PMA-differentiated THP-1 cells (hNLRP3 agonist; ELISA, alternative and hTRF procedures); type: cell-based
T1 construct: THP-1 cells were purchased from the American Type Culture Collection; host or cells: THP-1 cells, PMA-differentiated
Summary of the method: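 PMA-differentiated THP-1 cells (PMA […] 24 h, 20 μg/ml overnight, or 50 ng/ml overnight, by procedure) replated in RPMI with 2% FBS and exposed to compound (e.g. 100–0.1 μM, 1% DMSO; hTRF format top 10 μM) for 4 h, 2 h, or 2 h respectively. Supernatant IL-1β measured by ELISA, or by hTRF with antibodies diluted 1:40.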

T1 sequence (Q96P20 whole entry): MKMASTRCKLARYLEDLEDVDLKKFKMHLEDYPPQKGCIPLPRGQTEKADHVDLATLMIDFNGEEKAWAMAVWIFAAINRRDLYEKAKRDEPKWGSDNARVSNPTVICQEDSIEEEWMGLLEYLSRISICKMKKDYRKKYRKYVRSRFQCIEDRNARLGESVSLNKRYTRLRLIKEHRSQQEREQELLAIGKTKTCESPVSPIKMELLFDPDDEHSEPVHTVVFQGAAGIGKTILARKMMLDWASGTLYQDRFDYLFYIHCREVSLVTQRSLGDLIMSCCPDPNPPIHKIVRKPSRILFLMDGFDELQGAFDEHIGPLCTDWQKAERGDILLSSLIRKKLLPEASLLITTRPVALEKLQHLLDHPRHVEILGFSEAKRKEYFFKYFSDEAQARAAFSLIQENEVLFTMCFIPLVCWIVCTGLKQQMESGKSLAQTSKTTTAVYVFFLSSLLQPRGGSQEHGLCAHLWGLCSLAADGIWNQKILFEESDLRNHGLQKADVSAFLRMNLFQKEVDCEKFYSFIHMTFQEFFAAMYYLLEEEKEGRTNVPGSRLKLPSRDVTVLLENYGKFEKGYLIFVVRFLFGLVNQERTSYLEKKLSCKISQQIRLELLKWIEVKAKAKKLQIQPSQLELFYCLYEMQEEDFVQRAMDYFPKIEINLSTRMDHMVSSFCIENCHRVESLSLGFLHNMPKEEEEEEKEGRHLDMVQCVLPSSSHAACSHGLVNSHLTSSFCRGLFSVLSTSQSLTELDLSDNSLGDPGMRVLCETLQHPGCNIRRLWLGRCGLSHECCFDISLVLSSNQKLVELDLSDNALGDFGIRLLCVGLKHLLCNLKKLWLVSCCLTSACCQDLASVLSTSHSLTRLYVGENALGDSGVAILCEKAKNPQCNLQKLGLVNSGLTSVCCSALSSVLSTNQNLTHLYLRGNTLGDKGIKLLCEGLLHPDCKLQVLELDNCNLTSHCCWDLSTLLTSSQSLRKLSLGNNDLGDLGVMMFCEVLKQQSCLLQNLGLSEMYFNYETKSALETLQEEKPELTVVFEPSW

Row | SMILES | EC50
1 | CCN(Cc1nc2c(N)nc3cc(-n4cccn4)ccc3c2n1CCO)C(C)=O [Compound 476, N-{[4-amino-1-(2-hydroxyethyl)-7-(1H-pyrazol-1-yl)-1H-imidazo[4,5-c]quinolin-2-yl]methyl}-N-ethylacetamide] | 6.1 µM
2 | CCN(Cc1nc2c(N)nc3cc(-c4cc[nH]n4)ccc3c2[nH]1)C(=O)N1CCOCC1 [Compound 455, N-{[4-amino-7-(1H-pyrazol-3-yl)-1H-imidazo[4,5-c]quinolin-2-yl]methyl}-N-ethylmorpholine-4-carboxamide] | 2 µM
3 | CCC(=O)N(CC)Cc1nc2c(N)nc3cc(-n4cccn4)ccc3c2n1CCO [Compound 478, N-{[4-amino-1-(2-hydroxyethyl)-7-(1H-pyrazol-1-yl)-1H-imidazo[4,5-c]quinolin-2-yl]methyl}-N-ethylpropanamide] | 3.7 µM
4 | CCNCc1nc2c(N)nc3cc(-c4ccn[nH]4)ccc3c2n1CCO [Compound 462, 2-[4-Amino-2-[(ethylamino)methyl]-7-(1H-pyrazol-5-yl)-1H-imidazo[4,5-c]quinolin-1-yl]ethan-1-ol] | 5.5 µM
5 | Nc1nc2cc(-n3ncc4ccccc43)ccc2c2[nH]c(CN3CCCC3=O)nc12 [Compound 157] | 23.4 µM
6 | Nc1nc2cc(Cl)ccc2c2[nH]c(CN3CCCC3=O)nc12 [Compound 143] | 9.4 µM
7 | CCN(Cc1nc2c(N)nc3cc(-c4cc[nH]n4)ccc3c2[nH]1)S(=O)(=O)N(C)C [Compound 458, 2-{[(dimethylsulfamoyl)(ethyl)amino]methyl}-7-(1H-pyrazol-3-yl)-1H-imidazo[4,5-c]quinolin-4-amine] | 2.1 µM
8 | CCN(Cc1nc2c(N)nc3cc(-n4cccn4)ccc3c2[nH]1)C(N)=O [Compound 130] | 3.3 µM
9 | CCN(Cc1nc2c(N)nc3cc(-c4ncc[nH]4)ccc3c2[nH]1)C(=O)OC(C)(C)C [Compound 155] | 17.4 µM
10 | CCN(Cc1nc2c(N)nc3cc(-c4cc[nH]n4)ccc3c2[nH]1)S(=O)(=O)C(C)C [Compound 459, N-{[4-amino-7-(1H-pyrazol-3-yl)-1H-imidazo[4,5-c]quinolin-2-yl]methyl}-N-ethylpropane-2-sulfonamide] | 6.7 µM
11 | CCNCc1nc2c(N)nc3cc(-n4cccn4)ccc3c2n1CCO [Compound 477, 2-[4-amino-2-[(ethylamino)methyl]-7-(1H-pyrazol-1-yl)-1H-imidazo[4,5-c]quinolin-l-yl]ethan-1-ol] | 6.3 µM
12 | CCC(=O)N(CC)Cc1nc2c(N)nc3cc(-c4cccs4)ccc3c2n1CCO [Compound 470, N-{[4-amino-1-(2-hydroxyethyl)-7-(thiophen-2-yl)-1H-imidazo[4,5-c]quinolin-2-yl]methyl}-N-ethylpropanamide] | 0.69 µM
13 | CCNCc1nc2c(N)nc3cc(-n4cccn4)ccc3c2n1CC [Compound 467, 1-ethyl-2-((ethylamino)methyl)-7-(1H-pyrazol-1-yl)-1H-imidazo[4,5-c]quinolin-4-amine] | 1.2 µM
14 | CC(=O)N(Cc1nc2c(N)nc3cc(-c4cc[nH]n4)ccc3c2[nH]1)C(C)C [Compound 140] | 7.3 µM
15 | CCn1c(CN2CCCC2=O)nc2c(N)nc3cc(-n4cccn4)ccc3c21 [Compound 465, 1-{[4-amino-1-ethyl-7-(1H-pyrazol-1-yl)-1H-imidazo[4,5-c]quinolin-2-yl]methyl}pyrrolidin-2-one] | 1 µM
16 | CCN(CC)C(=O)N(CC)Cc1nc2c(N)nc3cc(-c4cc[nH]n4)ccc3c2[nH]1 [Compound 454, 1-{[4-amino-7-(1H-pyrazol-3-yl)-1H-imidazo[4,5-c]quinolin-2-yl]methyl}-1,3,3-triethylurea] | 0.74 µM
17 | CCN(Cc1nc2c(N)nc3cc(-c4cc[nH]n4)ccc3c2[nH]1)C(=O)NC(C)(C)C [Compound 456, 1-{[4-amino-7-(1H-pyrazol-3-yl)-1H-imidazo[4,5-c]quinolin-2-yl]methyl}-3-tert-butyl-1-ethylurea] | 2.2 µM
18 | CC(=O)N(C)Cc1nc2c(N)nc3cc(-c4cc[nH]n4)ccc3c2[nH]1 [Compound 129] | 3.6 µM
19 | CCNCc1nc2c(N)nc3cc(-c4ncc[nH]4)ccc3c2[nH]1 [Compound 162] | 42 µM

— patent US12351580B2, “NLRP3 modulators” (Innate Tumor Immunity, Inc., priority 2017, dated 2025)
